# Results from patent US7354938B2, “Pyrazole compounds and uses related thereto” (Amgen Inc., priority 2004, dated 2008).
# Target: T1, human HSD1 (recombinant HSD1) (Homo sapiens, UniProt P28845)
# T1 construct: made in house
# Assay: In vitro HSD1 activity inhibitory action (SPA, conversion of cortisone to cortisol)
# Format: biochemical
# Conditions: recombinant human HSD1 expressed in baculo-virus system, 16 nM 3H cortisone, 500 μM NADPH, room temperature, 90 min
# Protocol: In Vitro HSD1 (Hydroxysteroid Dehydrogenase 1) Activity Inhibitory Action
# The HSD1 inhibitory activity was examined by quantitative determination by an SPA (scintillation proximity assay) system of the suppressive action on the conversion from cortisone to cortisol using human HSD1 (hereinafter recombinant HSD1) expressed using a baculo-virus system as an enzyme source. For the reaction, a reagent was added to a 96 well plate (96 well Opti-plates™-96 (Packard)) to the following final concentration and a volume of 100 μl was reacted at room temperature for 90 min. The reaction solution used was 0.1 μg/mL recombinant HSD1,500 μM NADPH, 16 nM ^3H cortisone (Amersham Biosciences, 1.78 Tbq/mol) dissolved in 0.1% BSA (Sigma)-containing PBS and the test drug was 2 μl of a compound solution (dissolved in DMSO). After 90 min, the reaction was stopped by adding PBS (40 μl, containing 0.1% BSA (Sigma)) containing 0.08 μg of anti-cortisol mouse monoclonal antibody (East Coast Biologics), 365 μg SPA PVT mouse antibody-binding beads (Amersham Biosciences) and 175 μM carbenoxolone (Sigma) to the reaction solution. After the completion of the reaction, the plate was incubated overnight at room temperature and the radioactivity was measured by Topcount (Packard). For control, the value (0% inhibition) of the well containing 2 μl of DMSO instead of the test drug was used, and for positive control, the value (100% inhibition) of the well containing carbenoxolone instead of the test drug at the final concentration of 50 μM was used. The inhibition (%) of the test drug was calculated by ((value of control−value of test drug)/(value of control−value of positive control))×100 (%). The IC50 value was analyzed using a computer-based curve fitting soft.
# T1 sequence (P28845 whole entry): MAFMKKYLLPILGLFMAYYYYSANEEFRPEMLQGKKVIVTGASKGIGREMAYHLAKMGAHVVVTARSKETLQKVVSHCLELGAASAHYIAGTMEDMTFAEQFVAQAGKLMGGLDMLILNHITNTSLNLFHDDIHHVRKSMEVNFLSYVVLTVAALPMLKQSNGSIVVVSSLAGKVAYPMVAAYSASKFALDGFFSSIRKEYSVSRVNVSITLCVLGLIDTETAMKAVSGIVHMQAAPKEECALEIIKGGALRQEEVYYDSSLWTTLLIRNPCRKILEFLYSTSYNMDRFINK
row,SMILES,IC50 [nM]
1,"Cc1c(-c2ccc(Cl)cc2Cl)n[nH]c1C1(c2ccccc2)CC1 [Ex. 1-1, 3-(2,4-dichlorophenyl)-4-methyl-5-((1-phenylcyclopropane)-1-yl)-pyrazole]",< 10
2,Clc1ccc(-c2cc(CCc3ccccc3Cl)n[nH]2)c(Cl)c1 [Ex. 1-2],10 to 1000
3,Cc1c(CCc2ccccc2Cl)n[nH]c1-c1ccc(Cl)cc1Cl [Ex. 1-3],< 10
4,CCOC(=O)c1c(-c2ccc(Cl)cc2Cl)n[nH]c1C1(c2ccccc2)CC1 [Ex. 1-4],10 to 1000
5,Clc1ccc(-c2cc(C3(c4ccccc4)CC3)[nH]n2)c(Cl)c1 [Ex. 1-5],10 to 1000
6,OCc1c(-c2ccc(Cl)cc2Cl)n[nH]c1Cc1ccc(F)cc1 [Ex. 1-8],10 to 1000
7,Cc1c(-c2ccc(Cl)cc2Cl)n[nH]c1Cc1ccc(F)cc1 [Ex. 1-9],10 to 1000
8,Cc1c(C2CCN(c3c(Cl)cncc3Cl)CC2)n[nH]c1C1(c2ccccc2)CC1 [Ex. 1-10],10 to 1000
9,Cc1c(C2CCN(c3ncccc3Cl)CC2)n[nH]c1C1(c2ccccc2)CC1 [Ex. 1-11],< 10
10,CC(C)c1c(-c2ccccc2)n[nH]c1C1(c2ccc(F)cc2)CC1 [Ex. 1-12],< 10
11,Cc1c(-c2ccccc2)n[nH]c1C1(c2ccc(F)cc2)CC1 [Ex. 1-13],< 10
12,Cc1c(-c2ccc(N3CCOC3=O)cc2Cl)n[nH]c1C1(c2ccccc2)CC1 [Ex. 1-14],10 to 1000
13,Cc1c(-c2ccccn2)n[nH]c1C1(c2ccc(F)cc2)CC1 [Ex. 1-15],< 10
14,Cc1c(C2(c3ccc(F)cc3)CC2)n[nH]c1C1(c2ccc(F)cc2)CC1 [Ex. 1-16],< 10
